Results as given in US8779141B2, “Viral inhibitors” (Gilead Sciences, Inc., priority 2002, dated 2014).
In brackets after ≈: the same amount, converted by molar mass. Like-named read-outs stand apart in the source and are kept apart here.

How the values were obtained:
BVDV-1 (strain PE515) = test: Anti-BVDV assay, virus-induced cytopathic effect in MDBK cells (MTS); type: cell-based, Bovine Viral Diarrhea Virus; conditions: reduction of virus induced cytopathic effect in MDBK cells by 50%
Method: (§1) Madin-Darbey Bovine Kidney (MDBK) cells were maintained in Dulbecco's modified Eagle medium (DMEM) supplemented with BVDV-free 5% fetal calf serum (DMEME-FCS) at 37° C. in a humidified, 5% CO2 atmosphere. BVDV-1 (strain PE515) was used to assess the antiviral activity in MDBK cells. Vero cells were maintained in the same way as MDBK cells. Vero cells were infected with Coxsackie B3 virus (strain Nancy).
Ninety-six-well cell culture plates were seeded with MDBK cells in DMEM-FCS so that cells reached 24 hr later confluency. Then medium was removed and serial 5-fold dilutions of the test compounds were added in a total volume of 100 ul, after which the virus inoculum (100 ul) was added to each well. […] Uninfected cells and cells receiving virus without compound were included in each assay plate. After 5 days, medium was removed and 90 μl of DMEM-FCS and 10 ul of MTS/PMS solution (Promega) was added to each well. Following a 2 hr incubation period at 37° C. the optical density of the wells was read at 498 nm in a microplate reader.

[1] = Cytostatic effect on exponentially growing MDBK cells (MTS); type: cell-based, Bovine; conditions: bovine; Table 9; reduction of growth of exponentially growing MDBK cells by 50%; mean of 2-5 determinations
Method: (§2) Madin-Darbey Bovine Kidney (MDBK) cells were maintained in Dulbecco's modified Eagle medium (DMEM) supplemented with BVDV-free 5% fetal calf serum ([…]) at 37° C. in a humidified, 5% CO2 atmosphere. […] Vero cells were maintained in the same way as MDBK cells. […] The effect of the drugs on exponentially growing MDBK cells was assessed as follows. Cells were seeded at a density of 5000 cell/well in 96 well plates in MEM medium (Gibco) supplemented with 10% fetal calf serum, 2 mM L-glutamine (Life Technologies) and bicarbonate (Life Technologies). […] Cultures were then again further incubated for 3 days after which the effect on cell growth was quantified by means of the MTS method (Promega).

[2] = test system: Coxsackie B3 virus (strain Nancy); test: Anti-coxsackie virus assay, cytopathic effect in Vero cells (MTS); type: cell-based; conditions: Enterovirus B, Table 13, reduction of virus (CBV-3 Nancy strain)-induced cytopathic effect in Vero cells by 50%
Method: as §1
(§3) Ninety-six-well cell culture plates were seeded with Vero cells in DMEM medium containing 10 fetal calf serum (FCS) so that cells reached confluency 24-48 hr later. Medium was then removed and serial 5-fold dilutions of the test compounds were added in a total volume of 100 ul, after which the virus inoculum (100 μl) was added to each well. […] Uninfected cells and cells receiving virus without compound were included in each asay plate. After 5 days, the medium was removed and 90 μl of DMEM-FCS and 10 μl of MTS/PMS solution (Promega) was added to each well. Following a 2 hr incubation period at 37° C., the optical density of the wells was read at 498 nm in a microplate reader. The 50% effective concentration (EC50) value was defined as the concentration of compound that protects 50% of the cell monolayer from virus-induced cytopathic effect.

Vero cells = test: Metabolism of confluent Vero cells (MTS); type: cell-based; conditions: Table 13; reduction of metabolism of confluent Vero cells by 50%, MTS method
Method: as §1, §3

MDBK cells = test: Cytostatic effect on exponentially growing MDBK cells (MTS); type: cell-based, Bovine; conditions: for MTC: Table 10, mean toxic concentration, reduces growth of exponentially growing MDBK cells by 50%
Method: as §2

BVDV (strain NADL) = type: cell-based, Bovine Viral Diarrhea Virus; conditions: GPJN22-resistant BVDV (F224S)
Method: Wild type BVDV (strain NADL) was twice plaque purified on MDBK cells. The entire coding region of the genome of this virus was sequenced. This plaque purified and sequenced virus was then cultured in the presence of increasing drug concentrations of compound (GPJN22). Following 12 passages, the virus was at least 25 fold resistant to compound GPJN22. The resistant virus preparation was again plaque purified. The entire coding region of the genome of this virus was sequenced. A mutation F224S in the RNA dependent RNA polymerase gene of the virus was detected in 4 out of 4 clones of this virus; no other mutations were detected in the resistant viruses. The GPJN22-resistant virus was cross-resistant with VP32947 (see Table 8). VP32947 is an earlier reported selective inhibitor of BVDV replication [Baginski S G et al., Proc Natl Acad Sci USA. 2000 Jul. 5; 97(14):7981-6]. In VP32947-resistant BVDV, a similar mutation was identified as being responsible for the drug-resistance. To confirm that the F224S mutation is indeed responsible for the resistant phenotype, the mutation was reintroduced by site-directed mutagenesis in an full-length infectious clone of the BVDV (strain NADL) [Vassilev et al., J. Virol. 1997 January; 71(1):471-8.].

[3] = test system: HCV replicon in Huh-5-2 cells; test: Anti-HCV replicon assay, luciferase activity in Huh-5-2 cells; type: cell-based; conditions: Hepatitis C virus, Table 11, inhibition of luciferase activity in the replicon system by 50%
Method: (§4) Cells were seeded at a density of 7000 cells per well in 96 well View Plate™ (Packard) in medium containing the same components as described above, except for G418. Cells were allowed to adhere and proliferate for 24 hr. At that time, culture medium was removed and serial dilutions of the test compounds were added in culture medium lacking G418. Interferon alfa 2a (500 IU) was included as a positive control. Plates were further incubated at 37° C. and 5% CO2 for 72 hours. Replication of the HCV replicon in Huh-5 cells results in luciferase activity in the cells. Luciferase activity is measured by adding 50 μl of 1× Glo-lysis buffer (Promega) for 15 minutes followed by 50 ul of the Steady-Glo Luciferase assay reagent (Promega). Luciferase activity is measured with a luminometer and the signal in each individual well is expressed as a percentage of the untreated cultures. […] Instead the density of the culture is measured by means of the MTS method (Promega).

[4] = Proliferation of exponentially growing Huh-5-2 cells (MTS); type: cell-based; conditions: human, exponentially growing Huh-5-2 cells (HCV replicon cell line); Table 11; inhibition of proliferation of exponentially growing Huh-5-2 cells by 50%
Method: as §4

[5] = test system: HCV replicon (RNA) synthesis in Huh-5-2 cells; test: Quantitative analysis of HCV replicon RNA by Taqman real-time RT-PCR in Huh-5-2 cells; type: cell-based, Hepatitis C Virus; conditions: for Delta CT: higher value = more profound inhibition of viral RNA synthesis; for CT: real-time RT-PCR, untreated 28.86 ± 0.04
Method: Replicon cells were plated at 7.5×10^3 cells per well in a 96-well plate plates at 37° C. and 5% CO2 in Dulbecco's modified essential medium containing 10% fetal calf serum, 1% nonessential amino acids and 1 mg/ml Geneticin. After allowing 24 h for cell attachment, different dilutions of compound were added to the cultures. Plates were incubated for 5 days, at which time RNA was extracted using the Qiamp Rneazyi Kit (Qiagen, Hilden, Germany). […] After initial activation of uracil-N-glycosylase at 50° C. for 2 minutes, RT was performed at 60° C. for 30 minutes, followed by inactivation of uracil-N-glycosylase at 95° C. for 5 minutes. Subsequent PCR amplification consisted of 40 cycles of denaturation at 94° C. for 20 seconds and annealing and extension at 62° C. for 1 minute in an ABI 7700 sequence detector. For each PCR run, negative template and positive template samples were used. The cycle threshold value (Ct-value) is defined as the number of PCR cycles for which the signal exceeds the baseline, which defines a positive value. The sample was considered to be positive if the Ct-value was <50. Results are expressed as genomic equivalents (GE).

[6] = Bovine viral diarrhea virus isolates and strains, Table 9, BVDV strain PE515, mean of 2-5 determinations, read-out: EC50
[7] = Bovine viral diarrhea virus isolates and strains, Table 10, read-out: EC50

Fc1cccc(F)c1Cn1ccc2nc(-c3c(F)cccc3F)nc-2c1 [GPRTI-8, 2-(2,6-Difluorophenyl)-5-[(2,6-difluorophenyl)methyl]-5H-imidazo[4,5-c]pyridine]
EC50 (BVDV-1 (strain PE515); [6]): 0.137 µg/mL (≈ 0.383 µM) | CC50 at 3 days [1]: > 79 µg/mL | EC50 [2]: 12.2 µg/mL (≈ 34.1 µM) | melting point: 195 to 197 °C | TC50 (Vero cells): >100 µg/mL

CCCN(CCC)CCSc1nnc2c(n1)[nH]c1ccccc12 [VP32947, 3-[((2-dipropylamino)ethyl)thio]-5H-1,2,4-triazino[5,6-b]indole, reference compound]
EC50 (BVDV-1 (strain PE515); Table 9, BVDV strain PE515, mean of 2-5 determinations): 0.003 µg/mL (≈ 0.00911 µM) | CC50 (MDBK cells; Table 9, reduction of growth of exponentially growing MDBK cells by 50%, mean of 2-5 determinations): 47 µg/mL (≈ 143 µM) | cross-resistance of the GPJN22-resistant virus (BVDV (strain NADL)): cross-resistant

Brc1ccc(Cn2ccc3nc(-c4ccccn4)nc-3c2)cc1 [GPJN-58, 5-[(4-Bromophenyl)methyl]-2-(2-pyridinyl)-5H-imidazo[4,5-c]pyridine]
EC50 (BVDV-1 (strain PE515); [6]): 0.052 µg/mL (≈ 0.142 µM) | CC50 at 3 days [1]: 8.1 µg/mL (≈ 22.2 µM) | EC50 [3]: 0.13 µg/mL (≈ 0.356 µM) | CC50 at 72 hours [4]: 2 µg/mL (≈ 5.48 µM) | Delta CT ([5]; 0.0016 ug/ml): 0.05 | CT ([5]; 0.0016 ug/ml): 28.91 | Delta CT ([5]; 0.008 ug/ml): 0.89 | CT ([5]; 0.008 ug/ml): 29.75 | Delta CT ([5]; 0.04 ug/ml): 1.03 | CT ([5]; 0.04 ug/ml): 29.89 | Delta CT ([5]; 0.2 ug/ml): 1.14 | CT ([5]; 0.2 ug/ml): 30.00 | Delta CT ([5]; 1 ug/ml): 4 | CT ([5]; 1 ug/ml): 32.86

Fc1ccccc1-c1nc2ccn(Cc3ccc(I)cc3)cc-2n1 [GPJN-113, 2-(2-Fluorophenyl)-5-[(4-iodophenyl)methyl]-5H-imidazo[4,5-c]pyridine]
EC50 (BVDV-1 (strain PE515); [7]): 0.0031 µg/mL (≈ 0.00722 µM) | MTC (MDBK cells): 20 µg/mL | EC50 [3]: 0.17 µg/mL (≈ 0.396 µM) | CC50 at 72 hours [4]: 14 µg/mL (≈ 32.6 µM)

Fc1ccccc1-c1nc2ccn(Cc3ccc(Cl)cc3)cc-2n1 [GPJN-112, 5-[(4-Chlorophenyl)methyl]-2-(2-fluorophenyl)-5H-imidazo[4,5-c]pyridine]
EC50 (BVDV-1 (strain PE515); [7]): 0.0049 µg/mL (≈ 0.0145 µM) | MTC (MDBK cells): 20 µg/mL | EC50 [3]: 0.29 µg/mL (≈ 0.859 µM) | CC50 at 72 hours [4]: > 17 µg/mL
